Article PMC7702303, “Biochemical and transcript level differences between the three human phosphofructokinases show optimisation of each isoform for specific metabolic niches” (Biochemical Journal, 2020)

Assays:
PFK = test system: PFK; design: key to Effect (activator or inhibitor of PFK): “+” indicates activator; “-“ indicates inhibitor; conditions: cited from earlier work; for Effect (activator or inhibitor of PFK): published literature, ref selected references in Supplementary Table 1
PFKM = conditions: PFKM; ref Sanchez-Martinez et al., 2000; read-out: Kact; cited from earlier work
PFKL = conditions: ref Van Schaftingen et al 1981; cited from earlier work
recombinant human PFK-P = target: T1, recombinant human PFK-P (Homo sapiens, UniProt Q01813); assay: ALDO-TIM-G3PDH enzyme-linked kinetic assay, PFK-P; type: biochemical; conditions: modulator 1100 µM
T1 construct: made in house; host or cells: PFK-deficient Saccharomyces cerevisiae
T1 sequence (Q01813 1-784): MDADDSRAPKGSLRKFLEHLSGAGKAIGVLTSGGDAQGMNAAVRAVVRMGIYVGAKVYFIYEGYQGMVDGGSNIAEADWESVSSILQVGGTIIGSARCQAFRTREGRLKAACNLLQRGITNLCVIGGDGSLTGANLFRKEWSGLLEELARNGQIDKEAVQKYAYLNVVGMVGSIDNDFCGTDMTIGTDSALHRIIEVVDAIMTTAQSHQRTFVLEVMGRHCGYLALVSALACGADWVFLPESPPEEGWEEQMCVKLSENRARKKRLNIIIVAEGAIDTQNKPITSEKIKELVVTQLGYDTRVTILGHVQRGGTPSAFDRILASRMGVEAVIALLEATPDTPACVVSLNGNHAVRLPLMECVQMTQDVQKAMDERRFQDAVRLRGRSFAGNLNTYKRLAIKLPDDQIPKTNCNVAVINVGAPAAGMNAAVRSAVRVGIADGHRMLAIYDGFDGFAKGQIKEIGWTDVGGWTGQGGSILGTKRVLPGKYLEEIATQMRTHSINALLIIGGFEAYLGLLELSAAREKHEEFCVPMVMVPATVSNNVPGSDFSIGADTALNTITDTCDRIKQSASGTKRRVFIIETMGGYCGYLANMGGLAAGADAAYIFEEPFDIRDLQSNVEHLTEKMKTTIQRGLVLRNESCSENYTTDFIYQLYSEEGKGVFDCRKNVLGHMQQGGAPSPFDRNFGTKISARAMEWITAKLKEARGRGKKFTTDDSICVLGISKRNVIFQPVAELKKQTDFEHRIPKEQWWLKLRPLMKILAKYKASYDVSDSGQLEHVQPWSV
Method: (§1) Recombinant human PFKs were expressed in PFK-deficient Saccharomyces cerevisiae and purified using the methods described previously, adapting earlier materials and protocols. Production of PFK intended for use in ATP titration experiments used 1 mM F6P as a tetramer stabilising agent in protein purification and storage buffers. Production of PFK intended for use in F6P titration experiments used 1 mM ATP as a tetramer stabilising agent in protein purification and storage buffers. Experimental details on the purification and characterisation procedures including figures showing SDS–PAGE gels of the highly pure PFKs used in the kinetic experiments described in this work have been recently published.
(§2) Assay buffer consisted of 50 mM TEA, 100 mM KCl, 10 mM MgCl2, 1 mM Tris(2-carboxyethyl)phosphine hydrochloride (TCEP), 10% glycerol, pH 7.4. Assay mix consisted of 5 units/ml glycerol-3-phosphate dehydrogenase (G3PDH, Sigma–Aldrich G6880), 2.5 units/ml aldolase (Sigma–Aldrich A2714), 25 units/ml triosephosphate isomerase (TIM, Sigma–Aldrich T6258), and 1.25 mM NADH. ATP and F6P were obtained from Sigma–Aldrich (A2383 and F3627, respectively). For ATP titrations, 38 µl of buffer or ligand were added to a clear non-binding 96-well plate. 40 µl of assay mix containing 10 mM F6P (final concentration 4 mM) was added and the plate was incubated at 25°C for 5 min. An amount of 2 µl of PFK isoforms were added to each well from stock concentrations of 150 µg/ml and the reaction was immediately started with 20 µl of ATP at varying concentrations. For F6P titrations, 30 µl of buffer or ligand was added to a clear non-binding 96-well plate. An amount of 40 µl of assay mix containing 1.25 mM ATP (final concentration 0.5 mM) was added and the plate was incubated at 25°C for 5 min. An amount of 5 µl of PFK isoforms were added to each well from stock concentrations of 200 µg/ml and the reaction was immediately started with 20 µl F6P at varying concentrations. All ligands and substrates (including ATP) were used at pH 7.4. All metabolites were obtained from Sigma–Aldrich unless otherwise stated. […] A SpectraMax M5 Multi-Mode Microplate Reader was used to measure A340nm at 13 s intervals for 10 min. All experiments were performed in triplicate unless otherwise stated.
(§3) Time-dependent absorbance change was converted into rate of NADH oxidation (µM s^−1) or specific activity (µmol min^−1 mg protein^−1) using the Beer-Lambert law (molar extinction coefficient of NADH 6.22 mM^−1 cm^−1). The initial rate of reaction was used to avoid accumulation of ADP, which activates PFK, interfering with the determination of kinetic properties. Non-linear regression analysis was performed on substrate titration data using GraphPad Prism 7, with curves fitted using allosteric sigmoidal models, enabling determination of steady-state kinetic values.

recombinant human PFK-M = target: T2, recombinant human PFK-M (Homo sapiens, UniProt P08237); assay: ALDO-TIM-G3PDH enzyme-linked kinetic assay, PFK-M; type: biochemical; conditions: modulator 1100 µM
T2 construct: made in house; host or cells: PFK-deficient Saccharomyces cerevisiae
T2 sequence (P08237 1-780): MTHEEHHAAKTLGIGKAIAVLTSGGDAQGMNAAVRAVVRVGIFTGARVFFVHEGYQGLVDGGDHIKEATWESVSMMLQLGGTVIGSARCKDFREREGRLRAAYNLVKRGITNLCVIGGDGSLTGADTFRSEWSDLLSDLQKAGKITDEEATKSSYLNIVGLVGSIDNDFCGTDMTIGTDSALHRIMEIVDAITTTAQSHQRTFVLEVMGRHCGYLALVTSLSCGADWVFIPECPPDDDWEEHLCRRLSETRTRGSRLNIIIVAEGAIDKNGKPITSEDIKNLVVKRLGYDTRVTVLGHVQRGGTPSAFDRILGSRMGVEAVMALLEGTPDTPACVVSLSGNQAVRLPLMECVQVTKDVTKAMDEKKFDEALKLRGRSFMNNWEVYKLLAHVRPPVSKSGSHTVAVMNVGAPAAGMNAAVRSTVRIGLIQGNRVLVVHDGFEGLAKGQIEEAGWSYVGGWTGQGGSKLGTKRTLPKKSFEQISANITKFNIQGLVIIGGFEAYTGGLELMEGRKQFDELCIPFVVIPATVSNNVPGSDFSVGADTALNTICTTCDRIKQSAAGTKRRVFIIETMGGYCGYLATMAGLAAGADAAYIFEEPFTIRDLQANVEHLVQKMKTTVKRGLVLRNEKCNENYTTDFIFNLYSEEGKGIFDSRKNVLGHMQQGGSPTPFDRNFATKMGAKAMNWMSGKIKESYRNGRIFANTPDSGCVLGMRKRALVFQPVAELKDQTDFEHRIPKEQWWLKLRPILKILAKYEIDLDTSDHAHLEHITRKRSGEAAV
Method: as §1, §2, §3

recombinant human PFK-L = target: T3, recombinant human PFK-L (Homo sapiens, UniProt P17858); assay: ALDO-TIM-G3PDH enzyme-linked kinetic assay, PFK-L; type: biochemical; conditions: PFK-L, modulator 1100 µM
T3 construct: made in house; host or cells: PFK-deficient Saccharomyces cerevisiae
T3 sequence (P17858 1-780): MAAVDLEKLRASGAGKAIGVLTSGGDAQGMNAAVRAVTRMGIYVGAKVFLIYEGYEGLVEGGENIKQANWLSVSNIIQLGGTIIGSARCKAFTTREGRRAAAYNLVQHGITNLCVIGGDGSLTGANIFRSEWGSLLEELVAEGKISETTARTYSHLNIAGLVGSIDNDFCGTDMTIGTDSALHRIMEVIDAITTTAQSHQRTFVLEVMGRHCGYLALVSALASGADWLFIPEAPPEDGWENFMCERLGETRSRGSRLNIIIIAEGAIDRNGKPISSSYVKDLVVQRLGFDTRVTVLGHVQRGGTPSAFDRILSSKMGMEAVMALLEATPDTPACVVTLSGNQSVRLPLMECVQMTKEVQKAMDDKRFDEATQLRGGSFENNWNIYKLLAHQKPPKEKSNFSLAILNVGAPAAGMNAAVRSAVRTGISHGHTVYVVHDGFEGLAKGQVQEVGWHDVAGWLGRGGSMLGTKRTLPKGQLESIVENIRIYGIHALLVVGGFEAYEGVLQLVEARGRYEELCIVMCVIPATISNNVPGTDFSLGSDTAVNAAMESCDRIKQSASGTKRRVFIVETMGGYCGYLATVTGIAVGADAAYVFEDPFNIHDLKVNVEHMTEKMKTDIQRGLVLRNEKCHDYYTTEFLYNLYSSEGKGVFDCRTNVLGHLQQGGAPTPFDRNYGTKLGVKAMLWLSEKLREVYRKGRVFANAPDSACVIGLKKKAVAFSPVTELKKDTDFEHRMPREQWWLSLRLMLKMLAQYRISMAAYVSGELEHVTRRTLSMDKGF
Method: as §1, §2, §3

PFKP = conditions: ref Sanchez-Martinez et al., 2000; cited from earlier work
[1] = test system: monocyte-derived macrophages; design: method as in FANTOM5 database; conditions: n = 3, ref FANTOM5 database, cited from earlier work

O=C1O[C@H]([C@@H](O)CO)C(O)=C1O [Ascorbate]
Effect (activator or inhibitor of PFK) (PFK): -

O=C(COP(=O)(O)O)[C@@H](O)[C@H](O)[C@H](O)COP(=O)(O)O [F16BP, fructose 1,6-bisphosphate]
EC50 (PFKM): 1.5 µM | IC50 or AC50 (activator) (PFKL): 40 µM | Effect (activator or inhibitor of PFK) (PFK): +

O=P(O)(O)OC[C@H]1O[C@H](OP(=O)(O)O)[C@H](O)[C@@H](O)[C@@H]1O [G16BP]
IC50 or AC50 (activator) (PFKL): 100 µM | Effect (activator or inhibitor of PFK) (PFK): +

Nc1nc2c(ncn2[C@@H]2O[C@H](COP(=O)(O)OP(=O)(O)O)[C@@H](O)[C@H]2O)c(=O)[nH]1 [GDP]
change in kcat^ATP/K0.5^ATP compared with control PFK without modulator (recombinant human PFK-P): −0.2% | K0.5ATP + modulator (recombinant human PFK-P; F6P 4mM, N=3, mean (SD)): 924.6 (367.7) M | VmaxATP + modulator (recombinant human PFK-P; F6P 4mM, N=3, mean (SD)): 31.48 (4.42) moles/min/mg | change in kcat^ATP/K0.5^ATP compared with control PFK without modulator (recombinant human PFK-M): +4.3% | change in kcat^ATP/K0.5^ATP compared with control PFK without modulator (recombinant human PFK-L): −48% | K0.5ATP + modulator (recombinant human PFK-L; F6P 4mM, N=3, mean (SD)): 404.4 (65.6) M | VmaxATP + modulator (recombinant human PFK-L; F6P 4mM, N=3, mean (SD)): 44.20 (2.84) moles/min/mg

[K+] [K+]
Effect (activator or inhibitor of PFK) (PFK): +

N [NH4+]
IC50 or AC50 (activator) (PFKP): 400 µM | Effect (activator or inhibitor of PFK) (PFK): +

O=P(O)(O)O [PO4 3-]
IC50 or AC50 (activator) (PFKP): 300 µM | Effect (activator or inhibitor of PFK) (PFK): +

Nc1nc2c(ncn2[C@@H]2O[C@@H]3COP(=O)(O)O[C@H]3[C@H]2O)c(=O)[nH]1 [cGMP]
Effect (activator or inhibitor of PFK) (PFK): -

Actin
Effect (activator or inhibitor of PFK) (PFK): +

Lactate
Effect (activator or inhibitor of PFK) (PFK): - | IC50 (PFK; value marked *, asterisk not explained, ref Costa Leite et al., 2007, read-out: IC50 or AC50 (inhibitor)): 4600 µM

lipopolysaccharide [LPS]
PFK-P transcript level ([1]; monocyte-derived macrophages activated by LPS): 10.3 × baseline | PFK-L transcript level ([1]; monocyte-derived macrophages after LPS stimulation): 1.9 × baseline

B1: Band 3: protein, PFK inhibitor in the published literature (protein, UniProt P02730 1-911, looked up)
Band 3 anion transport protein: MEELQDDYEDMMEENLEQEEYEDPDIPESQMEEPAAHDTEATATDYHTTSHPGTHKVYVELQELVMDEKNQELRWMEAARWVQLEENLGENGAWGRPHLSHLTFWSLLELRRVFTKGTVLLDLQETSLAGVANQLLDRFIFEDQIRPQDREELLRALLLKHSHAGELEALGGVKPAVLTRSGDPSQPLLPQHSSLETQLFCEQGDGGTEGHSPSGILEKIPPDSEATLVLVGRADFLEQPVLGFVRLQEAAELEAVELPVPIRFLFVLLGPEAPHIDYTQLGRAAATLMSERVFRIDAYMAQSRGELLHSLEGFLDCSLVLPPTDAPSEQALLSLVPVQRELLRRRYQSSPAKPDSSFYKGLDLNGGPDDPLQQTGQLFGGLVRDIRRRYPYYLSDITDAFSPQVLAAVIFIYFAALSPAITFGGLLGEKTRNQMGVSELLISTAVQGILFALLGAQPLLVVGFSGPLLVFEEAFFSFCETNGLEYIVGRVWIGFWLILLVVLVVAFEGSFLVRFISRYTQEIFSFLISLIFIYETFSKLIKIFQDHPLQKTYNYNVLMVPKPQGPLPNTALLSLVLMAGTFFFAMMLRKFKNSSYFPGKLRRVIGDFGVPISILIMVLVDFFIQDTYTQKLSVPDGFKVSNSSARGWVIHPLGLRSEFPIWMMFASALPALLVFILIFLESQITTLIVSKPERKMVKGSGFHLDLLLVVGMGGVAALFGMPWLSATTVRSVTHANALTVMGKASTPGAAAQIQEVKEQRISGLLVAVLVGLSILMEPILSRIPLAVLFGIFLYMGVTSLSGIQLFDRILLLFKPPKYHPDVPYVKRVKTWRMHLFTGIQIICLAVLWVVKSTPASLALPFVLILTVPLRRVLLPLIFRNVELQCLDADDAKATFDEEEGRDEYDEVAMPV
Effect (activator or inhibitor of PFK) (PFK): -
